In patent publication US20120028837A1, “RAPID SCREEN FOR REPRODUCTIVE TOXICANTS” (PRESIDENT AND FELLOWS OF HARVARD COLLEGE, priority 2010, published 2012):
Structures can show the parent of a compound that is named as a salt. Marks after values point to notes of the source that are not given here.

Assays:
C. elegans germline = assay: Size of mitotic zone of the germline (DAPI, phospho-histone H3 staining)
From the text: In C. elegans, the germline is comprised of two main compartments, a mitotic region (the premeiotic tip), where nuclei are under the influence of the distal tip cell that maintains them in a proliferative state; and the meiotic region, where nuclei progress through the stages of Prophase I before being fertilized. The mitotic compartment of the worm gonad following BPA exposure was examined.
(§1) BPA bears endocrine disrupting activity in many developmental contexts including gonadal, brain and mammary gland development. BPA has affinity for multiple members of the estrogen receptors family, in particular BPA binds to the human estrogen receptor alpha (ERα) and ERβ as well as estrogen-related receptor gamma (ERR-γ) and in C. elegans with nuclear hormone receptor NHR-14 which also binds estrogen. […] Two hallmarks of exposure to BPA were examined, the decrease in the size of the proliferative zone and the condensation defects observed at diakinesis, as they are both highly penetrant and consistent phenotypes. […] Similarly to the experiments described above, the size of the mitotic zone was quantified as well as condensation defects at diakinesis.
Growing Conditions and Drug Exposures. Worms were cultured according to [23] at 20° C. on NGM plates without cholesterol. […] Exposure was carried from embryogenesis to adulthood by plating sodium hypochloride treated eggs onto drug and control plates and incubated at 20° C. for four days.
Antibody Staining. DAN staining, immunostaining and analysis of stained meiotic nuclei were performed as in [25] except for ATL-1 and AIR-2 antibodies were dissected gonads were subjected to a 1% fixation method as described in [27]. […] The secondary antibodies used were: Cy3 anti-rabbit, FITC anti-guinea-pig and FITC anti-mouse (Jackson Immunochemicals), each at 1:100, Stacks of 0.2 μm slices were captured using a Leica microscope, coupled to the DeltaVision fluorescence microscope system (Applied Precision). […]

[1] = system: C. elegans diakinesis oocytes; assay: Diakinesis oocyte analysis (chromosome condensation, SYP-1, AIR-2, pH3); details: 1 mM E2; […] 4-HT
From the text: Proper processing of recombination events is coupled with the formation of mature bivalents during the diakinesis stage such that in mutants where recombination intermediate processing is impaired, bivalent maturation is delayed.
Associated with the changes in chromatin morphology, the SC is disassembled during late diakinesis in a tightly controlled fashion. Accordingly, SC components, such as SYP-1, are detectable on the short arms of the bivalent in the −3 oocyte but are essentially absent from the bivalents of −2 and −1 oocytes. Thus, whether a delay in chromosome remodeling could correlate with an incomplete disassembly of SC components in late diakinesis was examined.
Accurate chromosome segregation at meiosis I is characterized by the carefully orchestrated loss of cohesion between homologs coupled with retention of cohesion between sister chromatids. This regulated process involves the targeting of the Aurora-B kinase AIR-2, a member of the chromosomal passenger complex, to the short arm of the bivalents in the −1 oocyte which has been proposed to lead to the removal the meiosis-specific cohesin REC-8 from the short arms of the bivalent. To examine whether these key steps in late meiotic prophase I might be impaired in BPA treated gonads, the localization of AIR-2 in the −1 oocytes was examined. […] Phospho histone H3 (pH3) is a canonical substrate for the activity of AIR-2 [59] and accordingly, although it accumulates in the −3 to −1 oocytes, it is only detected on the short arms of the bivalent in the −1 oocyte in the presence of AIR-2 [56, 57].
as §1
Antibody Staining. DAN staining, immunostaining and analysis of stained meiotic nuclei were performed as in [25] except for ATL-1 and AIR-2 antibodies were dissected gonads were subjected to a 1% fixation method as described in [27]. Antibodies were used at the following dilutions: rabbit α-SYP-1 (1:100), mouse α-RAD-51 (1:100), rabbit α-HTP-3 (1:500), guinea pig α-HIM-8 (1:100), rabbit α-ATL-1 (1:50), rabbit α-AIR-2 (1:100) and rabbit α-pCHK-1 (1:100). The secondary antibodies used were: Cy3 anti-rabbit, FITC anti-guinea-pig and FITC anti-mouse (Jackson Immunochemicals), each at 1:100, Stacks of 0.2 μm slices were captured using a Leica microscope, coupled to the DeltaVision fluorescence microscope system (Applied Precision). The images were projections approximately halfway through 3D data stacks of whole nuclei, except for diakinesis images which encompass entire nuclei.

xol-1::GFP worms = assay: xol-1::GFP reporter assay for male (aneuploid) embryos; details: for male embryos in adult mid-ventral sections: 0.1 mg/ml in liquid culture, added 1 day post-L4 for 20 hours; for frequency of xol-1::GFP worms containing GFP+ eggs: 0.1 mg/ml, preliminary analysis
Experimental: In one embodiment of the invention, synchronized cultures of worms are grown for the desired developmental period (e.g., from eggs to adulthood, 4 days) on multiwell plates (e.g., 96-well plates) containing media mixed with the compound of interest at the concentration of interest (e.g., 1 μM and 100 μM). The concentrations can be adjusted if necessary to compensate for solubility differences. Following exposure, the worms are washed off the plate with a physiological buffer and then run through a high-throughput flow cytometry device (e.g., the COPAS Biosort). With this automated nematode analysis, sorting, and dispensing platform (Furlong et al., Nat Biotechnol. 2001; 19(2):153-6; Gill et al., Free Radic Biol Med. 2003; 35(6):558-65; Rea et al., Nat Genet. 2005; 37(8):894-8. PMCID: 1479894) one 96-well plate can be screened per hour. In one embodiment, test wells are alternated with mock wells to flush the equipment in order to avoid cross-contamination. […] The worm sorter not only directs the sorting of GFP positive worms from GFP negative ones but when coupled to the Profiler analysis software, also allows for the localization of the fluorescence within the worm. In one embodiment, scoring is for GFP positive eggs present in the animal's mid-ventral section (uterus), therefore, any worms showing mis-localized GFP expression will be discarded thus improving the accuracy of the screen. Positive controls used for the screen can include colchicine and nocodazole, both described as disruptors of spindle organization and therefore of chromosome segregation (Sato A, et al., Cell. 2009; 139(5):907-19; Stear et al., Mol Biol Cell. 2004; 15(11):5187-96. PMCID: 524797).
Worms are grown from eggs to adulthood (4 days) on 96-well plates containing media mixed with the compound of interest. Initially, two different concentrations are assayed, 1 μM and 100 μM, concentrations previously used in the context of other C. elegans toxicological screens (Boyd, McBride and Freedman, 2007; Boyd et al, 2009).
Following exposure, the worms are washed off the plate with buffer and run through a high-throughput flow cytometry device, commonly known as a “worm sorter” (COPAS-Biosort from Union Biometrica). The worm sorter not only directs the sorting of GFP positive worms from GFP negative ones but when coupled to the Profiler analysis software, also allows for the localization of the fluorescence within the worm. Scoring in the screen, is for GFP positive eggs present in the animal's mid-ventral section (uterus), therefore, any worms showing mis-localized GFP expression are discounted thus improving the accuracy of the screen.
The xol-1::GFP reporter strain was tested for meiotic disruption by addition of an external agent, by exposing the C. elegans to several cell cycle disruptors (microtubule disrupting agents) dissolved in DMSO, DMSO alone was used as a negative control. Each individual test agent was added to the liquid culture medium of the C. elegans at 1 day post-L4 (4 days of development) for a total of 20 hours. The C. elegans was then analyzed for the percentage of male embryos in the adult-midventral sections. Nocodazol was added to the medium at a final concentration of 0.1 mg/ml.
Adult xol-1::GFP worms were exposed to 100 μM nocodazole for 24 hours in liquid culture and the presence of GFP+ embryos in the uterus of exposed worms was monitored.
The effect of selected chemotherapeutic agents on the generation of aneuploidies was analyzed. xol-1::GFP adult worms were exposed to the compounds at a concentration of 100 μM for 24 hours in liquid culture in triplicates.
Each well contained 750 μl of M9, the drug at a final concentration of 100 μM, concentrated bacteria and young adults+eggs. The cultures were examined at 24 hours and 4 days.

xol-1::LUC = assay: xol-1::luciferase reporter induction; format: in vivo, C. elegans; details: 1 μM or 100 μM for 24 hours, preliminary experiment
[2] = average over the chemicals of the category, 100 μM, 24 hours, liquid culture, triplicates
[3] = xol-1::GFP, C. elegans, in vivo, 24 hours, 100 μM

C[C@]12CC[C@@H]3c4ccc(O)cc4CC[C@H]3[C@@H]1CC[C@@H]2O [E2, estradiol]
increase in the number of nuclei comprising the mitotic region vs ethanol (C. elegans germline; 1 mM E2 for 4 days, DAPI staining): 13% | bivalent maturation / condensation defects at diakinesis [1]: did not cause any observable bivalent maturation defects

4-hydroxy-tamoxifen [4-HT]
pH3 positive nuclei in mitotic zone vs control (C. elegans germline; 4 days exposure, BPA 1 mM, 4-HT […]): two-fold decrease

CC[C@]1(O)C[C@H]2CN(CCc3c([nH]c4ccccc34)[C@@](C(=O)OC)(c3cc4c(cc3OC)N(C=O)[C@H]3[C@@](O)(C(=O)OC)[C@H](OC(C)=O)[C@]5(CC)C=CCN6CC[C@]43[C@@H]65)C2)C1 [Vincristine sulfate]
Average % of worms with 1 or more GFP embryos/category (xol-1::GFP worms; [2]): 23.3% *

COC(=O)Nc1nc2ccc(C(=O)c3cccs3)cc2[nH]1 [nocodazole]
male embryos in adult mid-ventral sections (xol-1::GFP worms): 37% | frequency of xol-1::GFP worms containing GFP+ eggs (xol-1::GFP worms): 6/16 | worms with at least one GFP+ embryo (xol-1::GFP worms; adult worms, 100 μM, 24 hours, liquid culture): 55% | Average % of worms with 1 or more GFP embryos/category (xol-1::GFP worms; [2]): 23.3% * | induction of luciferase compared to DMSO (xol-1::LUC): significant induction

CC[C@@]1(O)C(=O)OCc2c1cc1n(c2=O)Cc2cc3c(CN(C)C)c(O)ccc3nc2-1 [Topotecan HCl]
Average % of worms with 1 or more GFP embryos/category (xol-1::GFP worms; [3]): 3.77% *

CN[C@H]1CCc2cc(OC)c(OC)c(OC)c2-c2ccc(OC)c(=O)cc21 [demecolcine]
male embryos in adult mid-ventral sections (xol-1::GFP worms): 2.7% | frequency of xol-1::GFP worms containing GFP+ eggs (xol-1::GFP worms): 3/66

CC[C@]1(O)C[C@@H]2CN(CCc3c([nH]c4ccccc34)[C@@](C(=O)OC)(c3cc4c(cc3OC)N(C)[C@H]3[C@@](O)(C(=O)OC)[C@H](OC(C)=O)[C@]5(CC)C=CCN6CC[C@]43[C@@H]65)C2)C1 [Vinblastine]
Average % of worms with 1 or more GFP embryos/category (xol-1::GFP worms; [3]): 23.3% *

Oc1ncnc2[nH]ncc12 [Allopurinol]
Average % of worms with 1 or more GFP embryos/category (xol-1::GFP worms; [3]): 0.6%

Triethylene melamine
Average % of worms with 1 or more GFP embryos/category (xol-1::GFP worms; [2]): 3.77% *
